Data as given in patent US8008007B2, “S-adenosyl-L-methionine analogs with extended activated groups for transfer by methyltransferases” (RWTH Aachen, priority 2005, dated 2011).

Assays:
Assay type in all cases: biochemical
[1] = target: T1, M.TaqI-V21G (Thermus aquaticus, UniProt P14385, V21G); experiment: DNA protection assay with M.TaqI variant V21G on phage lambda DNA; conditions: 1 μg phage lambda DNA, cofactor 300 μM, 60° C. for 4 h, then R.TaqI
T1 construct: made in house
Text: (§1) Transfer kinetics of the activated ethyl (—CH2CH3), propyl (—CH2CH2CH3), prop-2-enyl (—CH2CH═CH2), prop-2-ynyl (—CH2C≡CH), but-2-ynyl (—CH2C≡CCH3), pent-2-ynyl (—CH2C≡CCH2CH3) and benzyl group (—CH2C6H5) from cofactors 3-9 by the DNA adenine-N6 methyltransferase M.TaqI and its variant V21 G, the DNA cytosine-C5 methyltransferase M.HhaI and its variant Q82A, the DNA cytosine-N4 methyltransferase M.BcnIB and the DNA cytosine-C5 methyltransferase M.SssI variant Q142A to phage lambda DNA (48502 base pairs) were investigated using a DNA protection assay. This assay makes use of the fact that DNA methyltransferase-catalyzed modifications of nucleobases within the recognition sequences of restriction endonucleases can protect the DNA against fragmentation by these enzymes. […] Unmodified DNA containing 5′-TCGA-3′ recognition sequences is readily fragmentated by R.TaqI. After DNA modification by M.TaqI in the presence of a cofactor with an activated group Z—R modified 5′-TCGA^Z—R-3′ sequences are formed and, as a result, R.TaqI is unable to fragment the modified DNA. Occurrence of fragmentation is then analyzed by agarose gel electrophoresis.
(§2) By varying the amounts of DNA methyltransferase, this assay is used to investigate the enzymatic activities of the different DNA methyltransferases with cofactors 3-9 and compare them to the enzymatic activities with the natural cofactor 1. The minimal amount of DNA methyltransferase needed to fully protect 1 μg of phage lambda DNA against restriction endonuclease fragmentation under the given experimental conditions is defined as one enzyme unit (u).
(§3) Afterwards a solution (30 μL) containing R.TaqI restriction endonuclease (40 u, MBI Fermentas), bovine serum albumin (0.166 mg/mL) and buffer (16.6 mM Tris hydrochloride, 166 mM sodium chloride, 8.3 mM magnesium chloride, pH 8.0) was added to each dilution and incubation at 60-65° C. was continued for 15 min. Loading buffer (10 μL, 0.25% bromphenol blue, 30% glycerol) was added to each sample, and aliquots (12 μL) were analyzed for the degree of protection by agarose gel (1%) electrophoresis. Parallel control experiments were performed with phage lambda DNA in the absence of M.TaqI and in the presence of M.TaqI (200 ng).
Therefore, the codon for V21 was changed to a codon for glycine by standard PCR mutagenesis (Ho et al., (1989) Gene 77, 51-59) and the correct DNA sequence of the complete gene was verified by DNA sequencing. […] The DNA protection assay with the V21G variant was performed as described for the wild type (Example 3A.1).

[2] = target: T2, M.HhaI-Q82A (Haemophilus parahaemolyticus, UniProt P05102, Q82A); experiment: Modification of cytosine-C5 in duplex oligodeoxynucleotide III.IV by M.HhaI-Q82A, nucleoside analysis by HPLC/ESI-MS; conditions: duplex III.IV 12.5 μM, cofactor 300 μM, enzyme 15 μM, 37° C. over night
T2 construct: made in house
T2 sequence (P05102 whole entry Q82A): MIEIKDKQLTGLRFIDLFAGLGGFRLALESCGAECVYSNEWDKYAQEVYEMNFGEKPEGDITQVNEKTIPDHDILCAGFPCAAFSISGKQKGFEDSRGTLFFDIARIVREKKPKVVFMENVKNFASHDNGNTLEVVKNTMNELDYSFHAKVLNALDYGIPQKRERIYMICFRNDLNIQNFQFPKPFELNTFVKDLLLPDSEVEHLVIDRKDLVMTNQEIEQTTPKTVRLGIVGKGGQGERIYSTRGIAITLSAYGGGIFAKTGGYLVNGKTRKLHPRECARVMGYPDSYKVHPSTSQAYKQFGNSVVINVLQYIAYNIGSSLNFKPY
Text: Transfer of the activated ethyl (CH2CH3), propyl (CH2CH2CH3), prop-2-enyl (CH2CHCH2), prop-2-ynyl group (CH2CCH), but-2-ynyl (CH2CCCH3), pent-2-ynyl (CH2CCCH2CH3) or benzyl group (CH2C6H5) from cofactors 3-9 by the DNA adenine-N6 methyltransferase M.TaqI, the DNA cytosine-C5 methyltransferase M.HhaI variant Q82A or the DNA cytosine-N4 methyltransferase M.BcnIB to DNA was first investigated using short duplex oligodeoxynucleotides as substrates. After enzymatic transfer the duplex oligodeoxynucleotides were enzymatically fragmented and the resulting modified nucleosides were analyzed by reversed-phase HPLC coupled with ESI-MS.
Therefore, the codon for Q82 was changed to a codon for alanine by standard Kunkel mutagenesis (Kunkel et al., […] Proc. Natl. Acad. Sci. USA 82, 488-492) and the correct DNA sequence of the complete gene was verified by DNA sequencing. Expression and purification of the Q82A variant was performed as described for the wild-type enzyme (Kumar et al., (1992) Biochemistry 31, 8648-8653; Klimasauskas et al., (1998) EMBO J. 17, 317-324). The presence of the amino acid substitution was verified by mass spectrometric analysis of purified M.HhaI-Q82A.
The duplex oligodeoxynucleotide III.IV was produced by mixing equal molar amounts (2.5 nmol) of complementary single-stranded oligodeoxynucleotide III (5′-[…]-3′) (SEQ ID NO. 3) and IV (5′-[…]-3′) (SEQ ID NO. 4) in water, heating at 85° C. for 5 min and slow cooling to room temperature. […] M.HhaI-Q82A was denatured by heating to 80° C. for 10 min and incubation with Proteinase K at 55° C. for 1 h. Hydrolysis products were removed by gel filtration (G-25 column, Amersham Biosciences).
The obtained solutions of duplex oligodeoxynucleotides were treated with buffer ( 1/10 volume, 100 mM Tris hydrochloride, 100 mM magnesium chloride, 10 mM zinc acetate, pH 7.5) containing Nuclease P1 (1500 u, Sigma) and calf intestine alkaline phosphatase (30 u, MBI Fermentas) and incubated at 37° C. for 4 h. Nucleosides were analyzed by reversed-phase HPLC (Discovery C18 150×2.1 mm, 5 μm, equipped with a Supelguard Discovery C18 20×2.1 mm, 5 μm, pre-column, Supelco, Germany) coupled with a mass spectrometric detector (HP 1100 series ESI-MS equipped with single quadruple). Compounds were eluted with methanol (0% for 6 min, followed by linear gradients to 56% in 15 min and to 80% in 1 min) in ammonium formate buffer (20 mM, pH 4.25 for cofactors 3, 4, 6 and pH 3.5 for cofactors 5, 7, 8) at a flow of 0.3 mL/min and detected at 280 nm. For on-line mass spectrometric detection post-column mobile phase modification (equal co-flow of 96% methanol, 4% formic acid and 1 mM sodium hydroxide) was used to enhance the detection efficiency of 2′-deoxycytidine and its derivatives. Mass spectra were recorded in 50-600 m/z range.

[3] = target: T3, M.TaqI (Thermus aquaticus, UniProt P14385); experiment: DNA protection assay with M.TaqI (wild-type) on phage lambda DNA; conditions: cofactor 300 μM, then R.TaqI
T3 construct: made in house
T3 sequence (P14385 whole entry): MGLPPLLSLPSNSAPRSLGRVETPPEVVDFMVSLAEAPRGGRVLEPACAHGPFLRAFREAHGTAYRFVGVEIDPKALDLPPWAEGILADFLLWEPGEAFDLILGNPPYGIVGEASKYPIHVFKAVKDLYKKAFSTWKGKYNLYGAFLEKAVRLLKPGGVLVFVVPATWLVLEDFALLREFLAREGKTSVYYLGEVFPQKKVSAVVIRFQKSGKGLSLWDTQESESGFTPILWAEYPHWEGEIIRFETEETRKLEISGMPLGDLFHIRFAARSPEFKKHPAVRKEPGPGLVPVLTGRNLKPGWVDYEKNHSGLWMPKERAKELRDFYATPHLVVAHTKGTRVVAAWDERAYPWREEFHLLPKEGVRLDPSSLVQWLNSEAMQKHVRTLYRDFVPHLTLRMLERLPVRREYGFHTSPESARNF
Text: as §1, §2, §3
Afterwards a solution (10 μL) containing R.TaqI restriction endonuclease (10 u, MBI Fermentas), bovine serum albumin (0.1 mg/mL) and buffer (33 mM Tris acetate, 66 mM potassium acetate, 10 mM magnesium acetate, pH 7.9) was added to each dilution and incubation was continued at 65° C. for 1 h. […] Parallel control experiments were performed with phage lambda DNA in the absence of M.TaqI and in the presence of M.TaqI (180 ng).

[4] = 1 μg phage lambda DNA, 60° C. for 4 h, 1 u = minimal enzyme amount fully protecting 1 μg DNA

T1 sequence (P14385 whole entry V21G): as the sequence (P14385 whole entry) above, with V21G counted along it

With `CC#CC[S+](CCC(N)C(=O)O)CC1OC(n2cnc3c(N)ncnc32)C(O)C1O` (mixture of isomers) [Cofactor 7] the “specific activity of M.TaqI-V21G with the cofactor” value (“specific activity of M.TaqI-V21G” below) [1] was 80 u/μg, the “cofactor function for M.HhaI-Q82A (transfer of group Z-R to cytosine-C5)” value (shortened to “cofactor function for M.HhaI-Q82A”) [2] was “functions as a cofactor” and the “specific activity of M.TaqI with the cofactor” value [3, 4] was 1280 u/μg.
In the case of `CC[S+](CCC(N)C(=O)O)CC1OC(n2cnc3c(N)ncnc32)C(O)C1O` (stereo not shown) [Cofactor 3], the “specific activity of M.TaqI-V21G” value [1] is reported as 5 u/μg, the “cofactor function for M.HhaI-Q82A” value [2] is reported as “functions as a cofactor” and the “specific activity of M.TaqI with the cofactor” value [3, 4] is reported as 10 u/μg.
`CCC[S+](CCC(N)C(=O)O)CC1OC(n2cnc3c(N)ncnc32)C(O)C1O` (stereo not shown) [Cofactor 4] was tested, and the “specific activity of M.TaqI-V21G” value [1] was < 5 u/μg, the “cofactor function for M.HhaI-Q82A” value [2] was “does not function as a cofactor” and the “specific activity of M.TaqI with the cofactor” value [3, 4] was < 5 u/μg.
With `C=CC[S+](CCC(N)C(=O)O)CC1OC(n2cnc3c(N)ncnc32)C(O)C1O` (stereo not shown) [Cofactor 5] the “specific activity of M.TaqI-V21G” value [1] was 640 u/μg, the “cofactor function for M.HhaI-Q82A” value [2] was “functions as a cofactor” and the “specific activity of M.TaqI with the cofactor” value [3, 4] was 80 u/μg.
`C#CC[S+](CCC(N)C(=O)O)CC1OC(n2cnc3c(N)ncnc32)C(O)C1O` (stereo not shown) [Cofactor 6] was tested, and the “specific activity of M.TaqI-V21G” value [1] was 20 u/μg, the “cofactor function for M.HhaI-Q82A” value [2] was “functions as a cofactor” and the “specific activity of M.TaqI with the cofactor” value [3, 4] was 10 u/μg.
In the case of `CCC#CC[S+](CCC(N)C(=O)O)CC1OC(n2cnc3c(N)ncnc32)C(O)C1O` (stereo not shown) [Cofactor 8], the “specific activity of M.TaqI-V21G” value [1] is reported as 80 u/μg, the “cofactor function for M.HhaI-Q82A” value [2] is reported as “functions as a cofactor” and the “specific activity of M.TaqI with the cofactor” value [3, 4] is reported as 640 u/μg.
In the case of `NCCCC(=O)NCC#CC[S+](CCC(N)C(=O)O)CC1OC(n2cnc3c(N)ncnc32)C(O)C1O` (stereo not shown) [Cofactor 10], the “specific activity of M.TaqI with the cofactor” value ([3]; 1.03 μg phage lambda DNA, 60° C. for 1 h only (multiply by four to compare with 4 h values)) is reported as 11 u/μg.
